Results on 15 compounds are retold here after patent publication US10150740B2, “6,7-dihydropyrido[2,1-A]phthalazin-2-ones for the treatment and prophylaxis of hepatitis B virus infection” (priority 2015, dated 2018).

Where a name gives a salt, the structure may show the parent alone.

The test system of the assay is HBsAg. The assay can be described thus: cells. The settings on record: Hepatitis B virus, HepG2.2.15, read-out: IC50 (HBsAg secretion).

Protocol: HepG2.2.15 cells (Acs et al. Proc Natl Acad Sci USA, 84, (1987), 4641-4), a constitutively HBV-expressing cell line were cultured in DMEM+Glutamax-I medium (Invitrogen, Carlsbad, Calif., USA), supplemented with 10% fetal bovine serum (Invitrogen) and G418 (Invitrogen) at a final concentration of 200 mg/L and maintained in 5% CO2 at 37° C.
HepG2.2.15 cells were seeded in duplicate into white, 96-well plates at 1.5×10^4 cells/well. The cells were treated with a three-fold serial dilution series of the compounds in DMSO. The final DMSO concentration in all wells was 1% and DMSO was used as no drug control.
The HBsAg chemiluminescence immunoassay (CLIA) kit (Autobio Diagnostics Co., Zhengzhou, China, Catalog number: CL0310-2) was used to measure the levels of secreted HBV antigens semi-quantitatively. For the detection 50 μL/well culture supernatant was used and HBsAg was quantified using HBsAg chemiluminescence immunoassay (CLIA) kit (Autobio Diagnostics Co., Zhengzhou, China, Catalog number: CL0310-2), 50 μL of the supernatant was transferred to the CLIA assay plate and 50 μL of enzyme conjugate reagent was added into each well. The plates were sealed and gently agitated for 1 hour at room temperature. The supernatant-enzyme-mixture was discarded and wells were washed 6 times with 300 μL of PBS. The residual liquid was removed by plating the CLIA plate right side down on absorbent tissue paper. 25 μL of substrates A and B were added to each well. Luminance was measured using a luminometer (Mithras LB 940 Multimode Microplate Reader) after 10 minutes incubation. Dose-response curves were generated and the IC50 value was extrapolated by using the E-WorkBook Suite (ID Business Solutions Ltd., Guildford, UK). The IC50 was defined as the compound concentration (or conditioned media log dilution) at which HBsAg secretion was reduced by 50% compared to the no drug control.

Consider `C=CCN1Cc2cc(OC)c(OC)cc2-c2cc(=O)c(C(=O)O)cn21` [Example 3, 6-Allyl-9,10-dimethoxy-2-oxo-7H-pyrido[2,1-a]phthalazine-3-carboxylic acid], for which the half-maximal inhibitory concentration (IC50) came to 0.74 µM. The same measure for `COc1cc2c(cc1OCCN1CCOCC1)CN(CC(C)C)n1cc(C(=O)O)c(=O)cc1-2` [Example 10, 6-Isobutyl-10-methoxy-9-(2-morpholinoethoxy)-2-oxo-7H-pyrido[2,1-a]phthalazine-3-carboxylic acid]: 0.225 µM; for `COc1cc2c(cc1OCC(F)(F)F)CN(CC(C)C)n1cc(C(=O)O)c(=O)cc1-2` [Example 7, 6-Isobutyl-10-methoxy-2-oxo-9-(2,2,2-trifluoroethoxy)-7H-pyrido[2,1-a]phthalazine-3-carboxylic acid]: 0.172 µM.

For the compound `COc1cc2c(cc1OC)-c1cc(=O)c(C(=O)O)cn1N(C)C2` [Example 2, 9,10-Dimethoxy-6-methyl-2-oxo-7H-pyrido[2,1-a]phthalazine-3-carboxylic acid], the IC50 came out at 2.53 µM. `COc1cc2c(cc1OC)-c1cc(=O)c(C(=O)O)cn1NC2` [Example 1, 9,10-Dimethoxy-2-oxo-6,7-dihydropyrido[2,1-a]phthalazine-3-carboxylic acid]: the IC50 came out at 18.7 µM. The same measure for `COc1cc2c(cc1OCCCCCN)CN(CC(C)C)n1cc(C(=O)O)c(=O)cc1-2` [Example 15, 9-(5-Aminopentoxy)-6-isobutyl-10-methoxy-2-oxo-7H-pyrido[2,1-a]phthalazine-3-carboxylic acid hydrochloride]: 0.5 µM; for `COc1cc2c(cc1OCCCCC(=O)O)CN(CC(C)C)n1cc(C(=O)O)c(=O)cc1-2` [Example 12, 9-(4-Carboxybutoxy)-6-isobutyl-10-methoxy-2-oxo-7H-pyrido[2,1-a]phthalazine-3-carboxylic acid]: 9.43 µM; for `COc1cc2c(cc1OC)-c1cc(=O)c(C(=O)O)cn1N(C(C)C)C2` [Example 4, 6-Isopropyl-9,10-dimethoxy-2-oxo-7H-pyrido[2,1-a]phthalazine-3-carboxylic acid]: 26.1 µM. Consider `COc1cc2c(cc1OC)-c1cc(=O)c(C(=O)O)cn1N(CC(C)C)C2` [Example 5, 6-Isobutyl-9,10-dimethoxy-2-oxo-7H-pyrido[2,1-a]phthalazine-3-carboxylic acid], for which the IC50 turned out to be 0.248 µM. With `COCCCOc1cc2c(cc1OC)-c1cc(=O)c(C(=O)O)cn1N(CC(C)C)C2` [Example 6, 6-Isobutyl-10-methoxy-9-(3-methoxypropoxy)-2-oxo-7H-pyrido[2,1-a]phthalazine-3-carboxylic acid], the IC50 came to 0.053 µM. As to `COc1cc2c(cc1OCC(C)(C)CO)CN(CC(C)C)n1cc(C(=O)O)c(=O)cc1-2` [Example 11, 9-(3-Hydroxy-2,2-dimethyl-propoxy)-6-isobutyl-10-methoxy-2-oxo-7H-pyrido[2,1-a]phthalazine-3-carboxylic acid], the IC50 turned out to be 0.039 µM. Consider `COc1cc2c(cc1OCCCCCNC(=O)OC(C)(C)C)CN(CC(C)C)n1cc(C(=O)O)c(=O)cc1-2` [Example 14, 9-[5-(Tert-butoxycarbonylamino)pentoxy]-6-isobutyl-10-methoxy-2-oxo-7H-pyrido[2,1-a]phthalazine-3-carboxylic acid], for which the IC50 worked out at 0.047 µM. Regarding `COc1cc2c(cc1OCC1CCOCC1)CN(CC(C)C)n1cc(C(=O)O)c(=O)cc1-2` [Example 8, 6-Isobutyl-10-methoxy-2-oxo-9-(tetrahydropyran-4-ylmethoxy)-7H-pyrido[2,1-a]phthalazine-3-carboxylic acid], the IC50 is 0.044 µM. The same measure for `COc1cc2c(cc1OCCCS(C)(=O)=O)CN(CC(C)C)n1cc(C(=O)O)c(=O)cc1-2` [Example 9, 6-Isobutyl-10-methoxy-9-(3-methylsulfonylpropoxy)-2-oxo-7H-pyrido[2,1-a]phthalazine-3-carboxylic acid]: 0.624 µM.

Consider `COc1cc2c(cc1OCCCC#N)CN(CC(C)C)n1cc(C(=O)O)c(=O)cc1-2` [Example 13, 9-(3-Cyanopropoxy)-6-isobutyl-10-methoxy-2-oxo-7H-pyrido[2,1-a]phthalazine-3-carboxylic acid], for which the IC50 came out at 0.11 µM.

The term IC50 denotes the concentration that inhibits the measured activity by half.
